Data: BindingDB's records for doi:10.1111/cbdd.12812 (Yueyang Vocational Technical College, 2016)

Target: T1, Aromatase (Homo sapiens, UniProt P11511)
T1 sequence (P11511 whole entry): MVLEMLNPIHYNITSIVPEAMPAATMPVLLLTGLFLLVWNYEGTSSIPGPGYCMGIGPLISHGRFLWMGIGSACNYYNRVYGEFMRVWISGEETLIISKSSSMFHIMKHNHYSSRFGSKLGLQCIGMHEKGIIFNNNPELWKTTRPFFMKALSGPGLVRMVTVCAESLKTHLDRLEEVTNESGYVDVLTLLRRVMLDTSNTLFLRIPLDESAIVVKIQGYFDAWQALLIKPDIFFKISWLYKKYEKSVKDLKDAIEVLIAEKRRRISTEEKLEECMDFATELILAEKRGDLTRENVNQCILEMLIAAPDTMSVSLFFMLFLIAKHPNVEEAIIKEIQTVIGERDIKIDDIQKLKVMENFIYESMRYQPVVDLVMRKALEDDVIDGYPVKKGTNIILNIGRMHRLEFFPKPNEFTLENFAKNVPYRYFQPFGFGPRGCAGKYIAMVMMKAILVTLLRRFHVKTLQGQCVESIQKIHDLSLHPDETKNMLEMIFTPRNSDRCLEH
Experiment: Aromatase Inhibition Activity Assay
Conditions: pH 7.5; 37 °C
Method: Briefly, concentrated stock solutions of test compounds were prepared in acetonitrile. Hundred microliters of samples containing serial dilutions of test compounds (dilution factor of 3 between samples) and cofactor mixture (0.4 U/mL glucose-6-phosphate dehydrogenase; 16.2 μm NADP+; 825 μm MgCl2; 825 μm glucose-6- phosphate; 50 μm citrate buffer, pH 7.5) was prepared in a 96-well plate. […] The plate was covered and incubated for 30 min at 37 °C. Seventy-five microliters of 0.5 m Tris base was then added to stop the reaction, and the fluorescence of the formed de-methylated MFC was measured with a plate reader (Spectra Max Gemini; Molecular Devices, Sunnyvale, CA, USA).

Structure (SMILES)	IC50 [nM]
Cc1c(C(=O)CSC#N)c(=O)n(-c2ccccc2)n1C [1,2-Dihydro-1,5-dimethyl-2-phenyl-4-thiocyanatoacetyl-3H-pyrazol-3-one (2)]	6.7
Cc1c(-c2csc(Cl)n2)c(=O)n(-c2ccccc2)n1C [2-Chloro-4-[4-(1,2-dihydro-1,5-dimethyl-2-phenyl-3-oxo-3H-pyrazol-4-yl)thiazole (26)]	3.3

Now from value to compound:

IC50 [nM]	Structure (SMILES)
4.6	Cc1c(C(=O)c2sc(=N)sc2Nc2ccccc2)c(=O)n(-c2ccccc2)n1C [4-[4-(1,2-Dihydro-1,5-dimethyl-2-phenyl-3-oxo-3H-pyrazol-4-ylcarbonyl)]-5-phenylamino-1,3-dithiole-2-imine (7)]
3.5	Cc1c(-c2csc(O)n2)c(=O)n(-c2ccccc2)n1C [2-Hydroxy-4-([4-(1,2-dihydro-1,5-dimethyl-2-phenyl-3-oxo-3H-pyrazol-4-yl)thiazole (25)]
3.9	Cc1c(C(=O)c2nn3c(nc(=O)c4ccccc43)s2)c(=O)n(-c2ccccc2)n1C [2-[4-(1,2-Dihydro-1,5-dimethyl-2-phenyl-3-oxo-3H-pyrazol-4-yl]-1,3,4-thiazolo[3,2-a]-1,3-quinazolin-2-one (10b)]
